In brackets after ≈: the same amount, converted by molar mass.
Test system: human rhinovirus (HRV) serotypes, panel T
Assay: MIC50/MIC80 over panel T of fifteen human rhinovirus serotypes (HeLa cell CPE)
Type: cell-based
Settings: for MIC50: minimum concentration required to inhibit 50% of the tested serotypes; for MIC80: minimum concentration required to inhibit 80% of the tested serotypes
Description: They are useful in inhibiting virus replication in vitro and are primarily active against picornaviruses, including enteroviruses, echovirus and coxsackie virus, especially rhinoviruses. […] The test procedure used was as follows: The MIC values were determined by an automated tissue culture infectious dose 50% (TCID-50) assay. HeLa cells in monoloyers in 96-well cluster plates were infected with a dilution of virus which had been shown empirically to produce 80% to 100% cytopathic effect (CPE) in 3 days in the absence of drug. The compound to be tested was serially diluted through 10, 2-fold cycles and added to the infected cells. After a 3 day incubation at 33° C. and 2.5% carbon dioxide, the cells were fixed with a 5% solution of glutaraldehyde followed by staining with a 0.25% solution of crystal violet in water. The plates were then rinsed, dried, and the amount of stain remaining in the well (a measure of intact cells) was quantitated with an optical density reader. The MIC was determined to be the concentration of compound which protected 50% of the cells from virus-induced CPE relative to an untreated virus control.
In the above test procedures, representative compounds of formula I were tested against some the serotypes from either a panel of fifteen human rhinovirus (HRV) serotypes, (noted in the table as panel T) namely, HRV-2, -14, -1A, -1B, -6, -21, -22, -15, -25, -30, -50, -67, -89, -86 and -41 or against some of the serotypes from a panel of 10 human rhinovirus serotypes namely HRV-3, -4, -5, -9, -16, -18, -38, -66, -75 and -61, (noted in the table as panel B) and the MIC value, expressed in micrograms per milliliter ([…]), for each rhinovirus serotype was determined for each virus, example 1e is given as an example of the data. Then MIC50 and MIC80 values, which are the minimum concentrations of the compound required to inhibit 50% and 80%, respectively, of the tested serotypes were determined.
The following Table gives the test results for representative compounds of the invention. The panel of viruses used in the test appears before the MIC80 and MIC50 figure and the number of serotypes which the compound is tested against (N) is indicated after the MIC80 and MIC50 figure.

For `Cc1cc(CCCCCOc2c(Cl)cc(-c3noc(C(F)(F)F)n3)cc2Cl)on1` [Example 31c, 5-{5-[2,6-Dichloro-4-(5-trifluoromethyl-1,2,4-oxadiazol-3-yl)-phenoxy]pentyl}-3-methylisoxazole], the MIC50 (Human rhinovirus sp., 72 h) was 99 µg/mL (≈ 220 µM) and the MIC80 was 0.533 µg/mL (≈ 1.18 µM).
For `Cc1cc(CCCOc2ccc(-c3noc(C4CCC4)n3)cc2)on1` [Example 54e, 5-{3-[4-(5-cyclobutyl-1,2,4-oxadiazol-3-yl)phenoxy]propyl}-3-methylisoxazole], the MIC50 (Human rhinovirus sp., 72 h) was 99 µg/mL (≈ 292 µM) and the MIC80 was 0.1045 µg/mL (≈ 0.308 µM).
With `Cc1cc(CCCOc2ccc(-c3noc(C(F)(F)F)n3)cc2)on1` [Example 32c, 3-Methyl-5-{3-[4-(5-trifluoromethyl-1,2,4-oxadiazol-3-yl) -phenoxy]propyl}isoxazole] the MIC50 (Human rhinovirus sp., 72 h) was 99 µg/mL (≈ 280 µM) and the MIC80 was 2.86 µg/mL (≈ 8.1 µM).
`Cc1cc(-c2noc(C3CC3)n2)cc(C)c1OCCCc1cc(CO)no1` [Example 39c, 5-{3-[4-(5-Cyclopropyl-1,2,4-oxadiazol-3-yl)-2,6-dimethylphenoxy]propyl}-3-(hydroxymethyl) isoxazole] was tested, and the MIC50 (Human rhinovirus sp., 72 h) was 0.187 µg/mL (≈ 0.506 µM) and the MIC80 was 0.035 µg/mL (≈ 0.0947 µM).
In the case of “5-{3-[4-(5-Trifluoromethyl-1,2,4-oxadiazol-3-yl)2-cyano-6-chlorophenoxy]-propyl}-3-methylisoxazole [Example 62f]”, the MIC50 is reported as 0.213 µg/mL and the MIC80 is reported as 0.09 µg/mL.
With `Cc1cc(CCCOc2c(C)cc(-c3nc(N)no3)cc2C)on1` [Example 47] the MIC50 (Human rhinovirus sp., 72 h) was 5.14 µg/mL (≈ 15.7 µM) and the MIC80 was 0.057 µg/mL (≈ 0.174 µM).
`CC(=O)OC(C)c1nc(-c2cc(C)c(OCCCc3cc(C)no3)c(C)c2)no1` (stereo not drawn) [Example 11, 5-{3-[2,6-Dimethyl-4-(5-(1-methylcarbonyloxy-ethyl)-1,2,4-oxadiazol-3-yl)phenoxy]propyl}-3-methylisoxazole] gave an MIC50 (Human rhinovirus sp., 72 h) of 1.98 µg/mL (≈ 4.97 µM) and an MIC80 of 0.2485 µg/mL (≈ 0.622 µM).
Work on `Cc1cc(-c2noc(C(F)(F)F)n2)cc(C)c1OCCCc1cc(CO)no1` [Example 34d, 5-{3-[2,6-Dimethyl-4-(5-trifluoromethyl-1,2,4-oxadiazol-3-yl)phenoxy]propyl}-3-(hydroxymethyl) isoxazole] yielded an MIC50 (Human rhinovirus sp., 72 h) of 0.07 µg/mL (≈ 0.176 µM) and an MIC80 of 0.042 µg/mL (≈ 0.106 µM).
With `Cc1cc(-c2noc(C3CC3)n2)cc(C)c1OCCCc1cc(C2CC2)no1` [Example 27] the MIC50 (Human rhinovirus sp., 72 h) was 0.142 µg/mL (≈ 0.374 µM) and the MIC80 was 0.087 µg/mL (≈ 0.229 µM).
`CCOC(=O)c1nc(-c2cc(C)c(OCCCc3cc(C)no3)c(C)c2)no1` [Example 7, 5-{3-[2,6-Dimethyl-4-(5-ethoxycarbonyl-1,2,4-oxadiazol-3-yl)phenoxy]propyl}-3-methylisoxazole] gave an MIC50 (Human rhinovirus sp., 72 h) of 99 µg/mL (≈ 257 µM) and an MIC80 of 99 µg/mL (≈ 257 µM).
With `Cc1cc(-c2noc(C3CC3)n2)cc(C)c1OCCCc1cc(O)no1` [Example 36d, 5-{3-[4-(5-cyclopropyl-1,2,4-oxadiazol-3-yl)-2,6-dimethylphenoxy]propyl}-3-hydroxyisoxazole] the MIC50 (Human rhinovirus sp., 72 h) was 1.32 µg/mL (≈ 3.72 µM) and the MIC80 was 0.371 µg/mL (≈ 1.04 µM).
For `Cc1cc(CCCOc2c(C)cc(-c3noc(C#N)n3)cc2C)on1` [Example 39, 5-{3-[4-(5-Cyano-1,2,4-oxadiazol-3-yl)-2,6-dimethylphenoxy]-propyl}-3-methylisoxazole], the MIC50 (Human rhinovirus sp., 72 h) was 99 µg/mL (≈ 293 µM) and the MIC80 was 1.848 µg/mL (≈ 5.46 µM).
For `COCc1nc(-c2cc(C)c(OCCCc3cc(C)no3)c(C)c2)no1` [Example 5, 5-{3-[2,6-Dimethyl-4-(5-methoxymethyl-1,2,4-oxadiazol-3-yl)phenoxy]propyl}-3-methylisoxazole], the MIC50 (Human rhinovirus sp., 72 h) was 0.153 µg/mL (≈ 0.428 µM) and the MIC80 was 0.037 µg/mL (≈ 0.104 µM).
`Cc1cc(CCCOc2c(C)cc(-c3nc(C(F)(F)F)no3)cc2C)on1` [Example 46c] showed an MIC50 (Human rhinovirus sp., 72 h) of 0.197 µg/mL (≈ 0.517 µM) and an MIC80 of 0.1 µg/mL (≈ 0.262 µM).
In the case of `CCOc1nc(-c2cc(C)c(OCCCc3cc(C)no3)c(C)c2)no1` [Example 17, 5-{3-[2,6-Dimethyl-4-(5-ethoxy-1,2,4-oxadiazol-3-yl)phenoxy]propyl}-3-methylisoxazole], the MIC50 (Human rhinovirus sp., 72 h) is reported as 0.116 µg/mL (≈ 0.325 µM) and the MIC80 is reported as 0.055 µg/mL (≈ 0.154 µM).
`CSc1nc(-c2cc(C)c(OCCCc3cc(C)no3)c(C)c2)no1` [Example 58d, 5-{3-[2,6-dimethyl-4-(5-methylthio-1,2,4-oxadiazol-3-yl)phenoxy]-propyl}-3-methylisoxazole] showed an MIC50 (Human rhinovirus sp., 72 h) of 99 µg/mL (≈ 275 µM) and an MIC80 of 99 µg/mL (≈ 275 µM).
`COCc1cc(CCCOc2c(C)cc(-c3noc(C4CC4)n3)cc2C)on1` [Example 26] was tested, and the MIC50 (Human rhinovirus sp., 72 h) was 0.183 µg/mL (≈ 0.477 µM) and the MIC80 was 0.038 µg/mL (≈ 0.0991 µM).
`Cc1cc(-c2noc(C3CC3)n2)cc(C)c1OCCCc1cc(OCCO)no1` [Example 44, 5-{3-[4-(5-Cyclopropyl-1,2,4-oxadiazol-3-yl)-2,6-dimethylphenoxy]propyl}-3-(2-hydroxyethoxy)isoxazole] showed an MIC80 of 0.385 µg/mL (≈ 0.964 µM).
`Cc1cc(CCCOc2c(C)cc(-c3nc(C4CC4)no3)cc2C)on1` [Example 45l, 5-{3-[2,6-Dimethyl-4,(5-cyclopropyl-1,2,4-oxadiazol-3-yl)phenoxy]propyl}-3-methylisoxazole] was tested, and the MIC50 (Human rhinovirus sp., 72 h) was 0.558 µg/mL (≈ 1.58 µM) and the MIC80 was 0.153 µg/mL (≈ 0.433 µM).
`COCCc1cc(CCCOc2c(C)cc(-c3noc(C(F)(F)F)n3)cc2C)on1` [Example 29d, 5-{3-[2,6-Dimethyl-4-(5-trifluoromethyl-1,2,4-oxadiazol-3-yl)phenoxy]propyl}-3-(methoxyethyl)isoxazole] showed an MIC50 (Human rhinovirus sp., 72 h) of 0.172 µg/mL (≈ 0.404 µM) and an MIC80 of 0.715 µg/mL (≈ 1.68 µM).
In the case of `Cc1cc(CCCOc2c(C)cc(-c3noc(CC(F)(F)F)n3)cc2C)on1` [Example 43, 5-{3-[2,6-Dimethyl-4-(5-(2,2,2-trifluoroethyl)-1,2,4-oxadiazol-3-yl)phenoxy]propyl}-3-methylisoxazole], the MIC50 (Human rhinovirus sp., 72 h) is reported as 99 µg/mL (≈ 250 µM) and the MIC80 is reported as 99 µg/mL (≈ 250 µM).
Compound `CCc1cc(CCCOc2c(C)cc(-c3noc(C4CC4)n3)cc2C)on1` [Example 25, 5-{3-[4-(5-Cyclopropyl-1,2,4-oxadiazol-3-yl) -2,6-dimethylphenoxy]propyl}-3-ethylisoxazole] has an MIC50 (Human rhinovirus sp., 72 h) of 0.312 µg/mL (≈ 0.849 µM) and an MIC80 of 0.085 µg/mL (≈ 0.231 µM).
`Cc1cc(CCCOc2c(C)cc(-c3noc(N(C)C)n3)cc2C)on1` [Example 19, 5-{3-[2,6-Dimethyl-4-(5-dimethylamino-1,2,4-oxadiazol-3-yl)-phenoxy]propyl}-3-methylisoxazole] was tested, and the MIC50 (Human rhinovirus sp., 72 h) was 0.285 µg/mL (≈ 0.8 µM) and the MIC80 was 0.085 µg/mL (≈ 0.238 µM).
For `Cc1cc(CCCOc2c(C)cc(-c3noc(CF)n3)cc2C)on1` [Example 6, 5-{3-[2,6-Dimethyl-4-(5-fluoromethyl-1,2,4-oxadiazol-3-yl)phenoxy]propyl}-3-methylisoxazole], the MIC50 (Human rhinovirus sp., 72 h) was 0.073 µg/mL (≈ 0.211 µM) and the MIC80 was 0.046 µg/mL (≈ 0.133 µM).
Work on `CCc1cc(CCCOc2c(C)cc(-c3noc(C(F)(F)F)n3)cc2C)on1` [Example 28c, 5-{3-[2,6-Dimethyl-4-(5-trifluoromethyl-1,2,4-oxadiazol-3-yl)phenoxy]propyl}-3-ethylisoxazole] yielded an MIC50 (Human rhinovirus sp., 72 h) of 0.278 µg/mL (≈ 0.703 µM) and an MIC80 of 0.119 µg/mL (≈ 0.301 µM).
Work on `Cc1cc(-c2noc(C(F)(F)F)n2)cc(C)c1OCCCc1cc(C2CC2)no1` [Example 23, 3-Cyclopropyl-5-{3-[2,6-dimethyl-4-(5-trifluoromethyl-1,2,4-oxadiazol-3-yl)phenoxy]propyl}-isoxazole] yielded an MIC50 (Human rhinovirus sp., 72 h) of 0.625 µg/mL (≈ 1.53 µM) and an MIC80 of 0.204 µg/mL (≈ 0.501 µM).
`Cc1cc(-c2noc(C(F)(F)F)n2)cc(C)c1OCCCc1cc(CCO)no1` [Example 33, 5-{3-[2,6-Dimethyl-4-(5-trifluoromethyl-1,2,4-oxadiazol-3-yl)-phenoxy]propyl}-3-(2-hydroxyethyl)isoxazole] was tested, and the MIC50 (Human rhinovirus sp., 72 h) was 0.102 µg/mL (≈ 0.248 µM) and the MIC80 was 0.045 µg/mL (≈ 0.109 µM).
In the case of `Cc1cc(CCCCCOc2c(C)cc(-c3noc(C(F)(F)F)n3)cc2C)on1` [Example 30c, 5-{5-[2,6-Dimethyl-4-(5-trifluoromethyl-1,2,4-oxadiazol-3-yl)-phenoxy]pentyl}-3-methylisoxazole], the MIC50 (Human rhinovirus sp., 72 h) is reported as 0.694 µg/mL (≈ 1.7 µM) and the MIC80 is reported as 0.225 µg/mL (≈ 0.55 µM).
Work on `CCOCc1cc(CCCOc2c(C)cc(-c3noc(C(F)(F)F)n3)cc2C)on1` [Example 22, 5-{3-[2,6-Dimethyl-4-(5-trifluoromethyl-1,2,4-oxadiazol-3-yl)phenoxy]propyl}-3-(ethoxymethyl)-isoxazole] yielded an MIC50 (Human rhinovirus sp., 72 h) of 0.729 µg/mL (≈ 1.71 µM) and an MIC80 of 0.087 µg/mL (≈ 0.205 µM).
For `Cc1cc(CCCOc2c(C)cc(-c3noc(C4CC4)n3)cc2C)on1` [Example 4, 5-{3-[4-(5-Cyclopropyl-1,2,4-oxadiazol-3-yl) -2,6-dimethylphenoxy]propyl}-3-methylisoxazole], the MIC50 (Human rhinovirus sp., 72 h) was 3.15 µg/mL (≈ 8.9 µM) and the MIC80 was 0.057 µg/mL (≈ 0.161 µM).
With `COCc1cc(CCCOc2c(C)cc(-c3noc(C(F)(F)F)n3)cc2C)on1` [Example 21, 5-{3-[2,6-Dimethyl-4-(5-trifluoromethyl-1,2,4-oxadiazol-3-yl)phenoxy]propyl}-3-(methoxymethyl) -isoxazole] the MIC50 (Human rhinovirus sp., 72 h) was 1.56 µg/mL (≈ 3.8 µM) and the MIC80 was 0.0575 µg/mL (≈ 0.14 µM).
Work on `COc1nc(-c2cc(C)c(OCCCc3cc(C)no3)c(C)c2)no1` [Example 16, 5-{3-[2,6-Dimethyl-4-(5-methoxy-1,2,4-oxadiazol-3-yl)phen-oxy]propyl}-3-methylisoxazole] yielded an MIC50 (Human rhinovirus sp., 72 h) of 0.135 µg/mL (≈ 0.393 µM) and an MIC80 of 0.036 µg/mL (≈ 0.105 µM).
